# Columns and labels:
# [1] = molecular target: Phosphatidylinositol 4,5-bisphosphate 3-kinase catalytic subunit alpha isoform (Homo sapiens, UniProt P42336); test: Inhibition of recombinant PI3K alpha (unknown origin) using PIP2 as substrate by fluorescence polarization assay; details: read-out: Ki(app)
# [2] = system: Hepatocyte; test: Drug metabolism in rat hepatocytes; type: ADME, cell-based
# [3] = system: Hepatocyte; test: Drug metabolism in human hepatocytes; type: ADME, cell-based
# [4] = Clearance in Sprague-Dawley rat at 1 mg/kg, iv; type: ADME, organism-based; details: in vivo
# Phosphatidylinositol 4,5-bisphosphate 3-kinase catalytic subunit alpha isoform, sequence (P42336 whole entry, canonical isoform): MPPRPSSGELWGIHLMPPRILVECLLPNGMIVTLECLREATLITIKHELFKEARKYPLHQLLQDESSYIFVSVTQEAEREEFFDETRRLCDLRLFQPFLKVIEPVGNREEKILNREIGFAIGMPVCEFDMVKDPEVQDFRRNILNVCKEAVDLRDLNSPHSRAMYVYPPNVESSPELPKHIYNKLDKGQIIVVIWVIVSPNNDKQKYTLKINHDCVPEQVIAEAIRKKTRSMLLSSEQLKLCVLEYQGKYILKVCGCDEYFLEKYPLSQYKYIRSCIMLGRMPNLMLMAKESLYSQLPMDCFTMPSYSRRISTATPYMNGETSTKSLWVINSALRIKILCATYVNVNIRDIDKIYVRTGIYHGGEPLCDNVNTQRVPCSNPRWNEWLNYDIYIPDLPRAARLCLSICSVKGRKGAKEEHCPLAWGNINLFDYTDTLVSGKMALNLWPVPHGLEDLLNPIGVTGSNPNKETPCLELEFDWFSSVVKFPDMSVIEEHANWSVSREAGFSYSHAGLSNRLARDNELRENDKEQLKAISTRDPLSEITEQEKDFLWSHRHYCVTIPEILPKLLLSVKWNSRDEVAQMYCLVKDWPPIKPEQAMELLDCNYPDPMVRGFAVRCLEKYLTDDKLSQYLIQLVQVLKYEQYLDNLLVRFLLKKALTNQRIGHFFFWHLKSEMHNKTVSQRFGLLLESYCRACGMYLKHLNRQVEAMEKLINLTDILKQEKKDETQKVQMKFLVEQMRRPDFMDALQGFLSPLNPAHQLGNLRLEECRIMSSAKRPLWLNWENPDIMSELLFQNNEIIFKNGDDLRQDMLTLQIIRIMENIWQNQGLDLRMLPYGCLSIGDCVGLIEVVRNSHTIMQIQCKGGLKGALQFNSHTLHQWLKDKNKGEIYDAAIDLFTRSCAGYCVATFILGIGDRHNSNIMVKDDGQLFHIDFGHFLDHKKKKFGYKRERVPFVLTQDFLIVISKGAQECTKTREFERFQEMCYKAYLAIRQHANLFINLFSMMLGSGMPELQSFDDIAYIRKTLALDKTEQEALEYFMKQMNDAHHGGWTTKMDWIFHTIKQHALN
SMILES,Ki [1],Drug metabolism [2],Drug metabolism [3],clearance [4]
CC(C)n1ncnc1-c1cn2c(n1)-c1cnc(N)cc1OCC2,1200 pM,–,–,–
CC(C)n1ncnc1-c1cn2c(n1)-c1cnc(N3CCC[C@H]3C(N)=O)cc1OCC2,100 pM,metabolite_notdetected,metabolite_notdetected,83 mL/min/kg
CC(C)n1ncnc1-c1cn2c(n1)-c1cnc(OCC(N)=O)cc1OCC2,900 pM,–,–,–

# — ChEMBL document CHEMBL3769318, “The Rational Design of Selective Benzoxazepin Inhibitors of the α-Isoform of Phosphoinositide 3-Kinase Culminating in the Identification of (S)-2-((2-(1-Isopropyl-1H-1,2,4-triazol-5-yl)-5,6-dihydrobenzo[f]imidazo[1,2-d][1,4]oxazepin-9-yl)oxy)propanamide (GDC-0326)” (J Med Chem, 2016)
